# Experimental data: patent US9586907B2, “Isothiocyanate compounds, pharmaceutical compositions, and uses thereof” (priority 2006, dated 2017)
# Read-outs that look alike come from different tables or passages of the source.
# Tests used:
# Candida albicans 90030 = assay: Anti-fungal MIC, Candida albicans 90030; settings: Candida albicans, 90030, read-out: Anti-Fungal Activity (MIC)
# Candida dlabrata 250^mdr = assay: Anti-fungal MIC, Candida dlabrata 250^mdr; settings: Candida, read-out: Anti-Fungal Activity (MIC)
# [1] = test system: Staphylococcus epidermidis; assay: Activity against Staphylococcus epidermidis (data not shown); assay type: cell-based
# [2] = test system: Cryptococcus neoformans CNH99; assay: Anti-fungal MIC, Cryptococcus neoformans CNH99; settings: Cryptococcus neoformans, CNH99, read-out: Anti-Fungal Activity (MIC)
# [3] = test system: Aspergillus fumigatus Rit 11; assay: Anti-fungal MIC, Aspergillus fumigatus Rit 11; settings: Aspergillus fumigatus, RIT11, read-out: Anti-Fungal Activity (MIC)
# [4] = test system: Aspergillus fumigatus Rit 21; assay: Anti-fungal MIC, Aspergillus fumigatus Rit 21; settings: Aspergillus fumigatus, RIT21, read-out: Anti-Fungal Activity (MIC)
# [5] = test system: Candida parapsilosis 22019; assay: Anti-fungal MIC, Candida parapsilosis 22019; settings: 22019, read-out: Anti-Fungal Activity (MIC)
# [6] = test system: Aspergillus fumigatus Rit 1; assay: Anti-fungal MIC, Aspergillus fumigatus Rit 1; settings: Aspergillus fumigatus, RIT1, read-out: Anti-Fungal Activity (MIC)
# [7] = test system: Candida albicans 5108^mdr; assay: Anti-fungal MIC, Candida albicans 5108^mdr; settings: Candida albicans, read-out: Anti-Fungal Activity (MIC)
# Bacillus cereus = assay: Activity of ITC compounds against Bacillus cereus; assay type: cell-based
# [8] = test system: methicillin-resistant Staphylococcus aureus (MRSA); assay: Activity against MRSA (data not shown); assay type: cell-based
# [9] = test system: clinical isolates of bacteria and fungus (including yeasts); assay: General antimicrobial activity, semi-quantitative score on collection of clinical isolates; assay type: cell-based; for General antimicrobial activity: key: −: indicating no activity; +++++: indicating highest activity
# Description: The growth inhibitory effect of a number of various ITC compounds were tested on large collection of clinical isolates of bacteria and fungus (including yeasts), in order to establish a systematic structure-activity relationship for the ITC compounds. […] To assess the average activity for an individual ITC compound, the semi-quantitative score was calculated for each compound based on the number of sensitive bacterial strains at concentrations of 100 and 200 μM.
# Candida albicans 90028 = assay: Anti-fungal MIC, Candida albicans 90028; settings: Candida albicans, 90028, read-out: Anti-Fungal Activity (MIC)
# Candida crusei 6258^mdr = assay: microbe, parasite or virus in culture; settings: read-out: Anti-Fungal Activity (MIC)
# M. tuberculosis P = assay: MIC, M. tuberculosis P; assay type: cell-based; settings: Mycobacterium tuberculosis, read-out: MIC
# Description: (§1) Next, several of the bifunctional ITC compounds were tested for their ability to inhibit the growth of some clinical isolates of Mycobacteria, the results of which are summarized in Table 3 below.
# M. tuberculosis W = assay: MIC, M. tuberculosis W; assay type: cell-based; settings: Mycobacterium tuberculosis, read-out: MIC
# Description: as §1
# M. intracellularie = assay: MIC, M. intracellularie; assay type: cell-based
# M. fortuitum = assay: MIC, M. fortuitum; assay type: cell-based; settings: Mycolicibacterium fortuitum
# M. tuberculosis H37Rv = assay: MIC, M. tuberculosis H37Rv; assay type: cell-based; settings: Mycobacterium tuberculosis, read-out: MIC
# Description: as §1
# M. cansassi = assay: MIC, M. cansassi; assay type: cell-based
# [10] = In vivo tolerance in mice; settings: highest dose, 50 mg/kg
# M. scrofulaceum = assay: MIC, M. scrofulaceum; assay type: cell-based; settings: Mycobacterium scrofulaceum
# M. tuberculosis CDC1551 = assay: MIC, M. tuberculosis CDC1551; assay type: cell-based; settings: Mycobacterium tuberculosis, read-out: MIC
# Description: as §1
# M. avium = assay: MIC, M. avium; assay type: cell-based; settings: Mycobacterium avium
# virus (92TH594) = assay: Viral proliferation in PBMC, p24 viral antigen; assay type: cell-based; settings: PBMC
# [11] = Compound stability, independent experiments; assay type: physicochemical
# Shigella sp., BK 12440 = assay: MIC, Shigella sp., BK 12440; assay type: cell-based; settings: Gram −, 24 hours of incubation, read-out: MIC
# [12] = test system: MRSA (Staphylococcus aureus) BK12060; assay: MIC, MRSA BK12060; settings: Staphylococcus aureus, MRSA, 24 h
# [13] = test system: Enterococcus sp., BK11936; assay: MIC, Enterococcus sp., BK11936; settings: Enterococcus, 24 h
# [14] = test system: MRSA (Staphylococcus aureus) BK12064; assay: MIC, MRSA BK12064; settings: Staphylococcus aureus, MRSA, 24 h
# Shigella sp., BK 12441 = assay: MIC, Shigella sp., BK 12441; assay type: cell-based; settings: Gram −, 24 hours of incubation, read-out: MIC
# Escherichia coli K12 = assay: MIC, Escherichia coli K12; settings: Escherichia coli, K12, 24 h
# Escherichia coli BK12336 = assay: MIC, Escherichia coli BK12336; settings: Escherichia coli, BK12336, 24 h
# [15] = test system: Acinetobacter sp., BK12786; assay: MIC, Acinetobacter sp., BK12786; settings: Acinetobacter, 24 h
# [16] = test system: Acinetobacter sp., BK12787; assay: MIC, Acinetobacter sp., BK12787; settings: Acinetobacter, 24 h
# [17] = test system: Staphylococcus epidermidis BK12798; assay: MIC, Staphylococcus epidermidis BK12798; settings: Staphylococcus epidermidis, BK12798, 24 h
# [18] = test system: Bacillus subtilis BK11590; assay: MIC, Bacillus subtilis BK11590; assay type: cell-based; settings: Gram +, 24 hours of incubation, read-out: MIC
# [19] = test system: Pseudomonas aeruginosa BK12347; assay: MIC, Pseudomonas aeruginosa BK12347; settings: Pseudomonas aeruginosa, BK12347, 24 h
# [20] = test system: Streptococcus sp., BK12233; assay: MIC, Streptococcus sp., BK12233; settings: Streptococcus, 24 h
# [21] = test system: Streptococcus sp., BK12235; assay: MIC, Streptococcus sp., BK12235; settings: Streptococcus, 24 h
# Bacillus cereus 4342 = assay: MIC, Bacillus cereus 4342; settings: Bacillus cereus, 4342, 24 h
# [22] = test system: Serattia marcescens BK12426; assay: MIC, Serattia marcescens BK12426; settings: 24 h
# [23] = test system: Klebsiella pneumonii BK12260; assay: MIC, Klebsiella pneumonii BK12260; settings: Klebsiella, BK12260, 24 h
# [24] = test system: Enterobacter cloacii BK12315; assay: MIC, Enterobacter cloacii BK12315; settings: Enterobacter, BK12315, 24 h
# [25] = test system: Enterobacter cloacii BK12313; assay: MIC, Enterobacter cloacii BK12313; settings: Enterobacter, BK12313, 24 h
# [26] = test system: Staphylococcus epidermidis BK12799; assay: MIC, Staphylococcus epidermidis BK12799; settings: Staphylococcus epidermidis, BK12799, 24 h
# [27] = test system: Serattia marcescens BK12421; assay: MIC, Serattia marcescens BK12421; settings: 24 h
# [28] = test system: Enterococcus sp., BK11940; assay: MIC, Enterococcus sp., BK11940; settings: Enterococcus, 24 h
# [29] = test system: Klebsiella pneumonii BK12261; assay: MIC, Klebsiella pneumonii BK12261; settings: Klebsiella, BK12261, 24 h
# [30] = test system: Pseudomonas aeruginosa BK12348; assay: MIC, Pseudomonas aeruginosa BK12348; settings: Pseudomonas aeruginosa, BK12348, 24 h
structure (smiles),measurement,setting,value
S=C=NCc1ccc2ccc3cccc4ccc1c2c34 [Compound 33],MIC,Candida albicans 90030,8 µg/mL
same,MIC,Candida dlabrata 250^mdr,64 µg/mL
same,activity against Staphylococcus epidermidis (in words),[1],very efficient
same,MIC,[2],4 µg/mL
same,MIC,[3],> 64 µg/mL
same,MIC,[4],> 64 µg/mL
same,MIC,[5],32 µg/mL
same,MIC,[6],> 64 µg/mL
same,MIC,[7],> 64 µg/mL
same,activity against Bacillus cereus (in words),Bacillus cereus,very efficient
same,activity against MRSA (in words),[8],very efficient
same,antimicrobial / growth-inhibitory activity (in words),[9]; Table 1 screen,poor growth-inhibitory activity
same,MIC,Candida albicans 90028,32 µg/mL
same,MIC,Candida crusei 6258^mdr,> 64 µg/mL
S=C=NCc1cccnc1 [Compound 30],MIC,Candida albicans 90030,1 µg/mL
same,MIC,Candida dlabrata 250^mdr; 48 h,2 µg/mL
same,MIC,M. tuberculosis P,4 µg/mL
same,MIC,[2],1 µg/mL
same,MIC,[3],4 µg/mL
same,MIC,[4],4 µg/mL
same,MIC,[5],1 µg/mL
same,MIC,[6],4 µg/mL
same,MIC,[7],0.5 µg/mL
same,MIC,M. tuberculosis W,4 µg/mL
same,MIC,M. intracellularie,32 µg/mL
same,activity against Bacillus cereus (in words),Bacillus cereus,only moderately active
same,MIC,M. fortuitum,16 µg/mL
same,MIC,M. tuberculosis H37Rv,32 µg/mL
same,MIC,Candida albicans 90028,2 µg/mL
same,MIC,M. cansassi,32 µg/mL
same,toxicity in treated mice,[10],no toxicity was observed
same,MIC,M. scrofulaceum,32 µg/mL
same,MIC,M. tuberculosis CDC1551,16 µg/mL
same,MIC,Candida crusei 6258^mdr,0.5 µg/mL
same,MIC,M. avium,32 µg/mL
same,P24 values,"virus (92TH594); compound 2.5 μg/ml, added to the cells after viral infection",643 pg/mL
same,P24 values,"virus (92TH594); compound 2.5 μg/ml, added to the cells before viral infection",320 pg/mL
same,P24 values,"virus (92TH594); compound 10 μg/ml, added to the cells after viral infection",155 pg/mL
same,P24 values,"virus (92TH594); compound 10 μg/ml, added to the cells before viral infection",0 pg/mL
S=C=NCc1ccncc1 [Compound 29],General antimicrobial activity,"[9]; semi-quantitative score from number of sensitive bacterial strains at 100 and 200 μM, deduced from number of sensitive bacterial species and average MIC",−
same,stability of the compound,[11],instability of the compound
"COc1ccc(CN=C=S)cc1 [Compound 2, reference compound]",MIC,Candida albicans 90030,4 µg/mL
same,MIC,"Shigella sp., BK 12440",64 µg/mL
same,MIC,Candida dlabrata 250^mdr; 48 h,1 µg/mL
same,MIC,[12],32 to 64 µg/mL
same,MIC,M. tuberculosis P,8 µg/mL
same,MIC,[2],< 1 µg/mL
same,MIC,[13],64 µg/mL
same,MIC,[3],8 µg/mL
same,MIC,[14],64 µg/mL
same,MIC,[4],8 µg/mL
same,MIC,"Shigella sp., BK 12441",32 to 64 µg/mL
same,MIC,Escherichia coli K12,64 µg/mL
same,MIC,Escherichia coli BK12336,> 64 µg/mL
same,MIC,[5],4 µg/mL
same,MIC,[6],8 µg/mL
same,MIC,[7],2 µg/mL
same,MIC,[15],> 64 µg/mL
same,MIC,M. tuberculosis W,8 µg/mL
same,MIC,[16],> 64 µg/mL
same,MIC,"M. intracellularie; M. intracellularie, read-out: MIC",32 µg/mL
same,MIC,"M. fortuitum; M. fortuitum, read-out: MIC",32 µg/mL
same,MIC,[17],32 µg/mL
same,MIC,M. tuberculosis H37Rv,32 µg/mL
same,MIC,[18],32 to 64 µg/mL
same,MIC,[19],> 64 µg/mL
same,MIC,[20],4 µg/mL
same,MIC,Candida albicans 90028,4 µg/mL
same,MIC,[21],8 µg/mL
same,MIC,"M. cansassi; M. cansassi, read-out: MIC",32 µg/mL
same,MIC,Bacillus cereus 4342,32 µg/mL
same,MIC,[22],> 64 µg/mL
same,MIC,[23],> 64 µg/mL
same,MIC,[24],> 64 µg/mL
same,MIC,"M. scrofulaceum; M. scrofulaceum, read-out: MIC",32 µg/mL
same,MIC,M. tuberculosis CDC1551,32 µg/mL
same,MIC,Candida crusei 6258^mdr,2 µg/mL
same,MIC,"M. avium; M. avium, read-out: MIC",32 µg/mL
same,MIC,[25],> 64 µg/mL
same,MIC,[26],32 µg/mL
same,MIC,[27],> 64 µg/mL
same,MIC,[28],64 µg/mL
same,MIC,[29],> 64 µg/mL
same,MIC,[30],> 64 µg/mL
